Source: the supplement of paper PMC4862054

How the values were obtained:
Assay in all cases: normalised response (% of control), CellTiter-Glo; higher = more viable cells (100 = DMSO, 0 = benzethonium chloride kill control)
Details in all cases: incubation time: 72 h
MDA-MB-231 = tested on: MDA-MB-231
Summary of the method: (§1)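 A 20 µl suspension of breast cancer cells was seeded into each well of 384-well plates containing compound at 5 concentrations in 10-fold steps over a compound-specific 10,000-fold range. After 72 h incubation, CellTox Green fluorescence (485/520 nm) was read first, and CellTiter-Glo luminescence was read after 10 min at room temperature. Each plate was normalised against 0.1 % DMSO (100) and a positive kill control (0), and each value is the normalised signal at one concentration.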

MDA-MB-468 = tested on: MDA-MB-468
Summary of the method: as §1

MCF-10A = tested on: MCF-10A
Summary of the method: as §1

Hs578T = tested on: Hs578T
Summary of the method: as §1

HCC1937 = tested on: HCC1937
Summary of the method: as §1

MDA-MB-453 = tested on: MDA-MB-453
Summary of the method: as §1

CAL-148 = tested on: CAL-148
Summary of the method: as §1

CAL-85-1 = tested on: CAL-85-1
Summary of the method: as §1

CAL-51 = tested on: CAL-51
Summary of the method: as §1

HCC1143 = tested on: HCC1143
Summary of the method: as §1

HDQ-P1 = tested on: HDQ-P1
Summary of the method: as §1

DU-4475 = tested on: DU-4475
Summary of the method: as §1

CAL-120 = tested on: CAL-120
Summary of the method: as §1

HCC1599 = tested on: HCC1599
Summary of the method: as §1

MDA-MB-436 = tested on: MDA-MB-436
Summary of the method: as §1

BT-549 = tested on: BT-549
Summary of the method: as §1

BT-474 = tested on: BT-474
Summary of the method: as §1

MFM-223 = tested on: MFM-223
Summary of the method: as §1

Compound | normalised response (MDA-MB-231) [%] | normalised response (MDA-MB-468) [%] | normalised response (MCF-10A) [%] | normalised response (Hs578T) [%] | normalised response (HCC1937) [%] | normalised response (MDA-MB-453) [%] | normalised response (CAL-148) [%] | normalised response (CAL-85-1) [%] | normalised response (CAL-51) [%] | normalised response (HCC1143) [%] | normalised response (HDQ-P1) [%] | normalised response (DU-4475) [%] | normalised response (CAL-120) [%] | normalised response (HCC1599) [%] | normalised response (MDA-MB-436) [%] | normalised response (BT-549) [%] | normalised response (BT-474) [%] | normalised response (MFM-223) [%]
C[C@@H]1C[C@H]2[C@@H]3CCC4=CC(=O)C=C[C@]4(C)[C@@]3(F)[C@@H](O)C[C@]2(C)[C@@]1(O)C(=O)CO [Dexamethasone] (10 nM) | 137 | 97.9 | 94 | 104 | 97.5 | 95.2 | 100 | 116 | 113 | 103 | 89.8 | 101 | 83.2 | 100 | 102 | 97.4 | 130 | 95.2
CC[C@H](CC#N)OC(=O)N[C@@H](C)c1cccc(NC(=O)Nc2ccc(-c3cnco3)c(OC)c2)c1 [AVN944] (10 nM) | 101 | 111 | 99.7 | 96.4 | 96 | 82.7 | 99.3 | 95.8 | 122 | 97.3 | 100 | 97.5 | 95 | 88.6 | 97.6 | 91.5 | 89.4 | 96.2
COc1cc2c(N3CCN(C(=O)Nc4ccc(OC(C)C)cc4)CC3)ncnc2cc1OCCCN1CCCCC1 [Tandutinib] (1 nM) | 101 | 102 | 99.8 | 98.6 | 99 | 95.1 | 101 | 107 | 118 | 103 | 103 | 102 | 104 | 90.9 | 107 | 94.9 | 99.9 | 103
CCN(CC)CCOc1ccc(C(=C(Cl)c2ccccc2)c2ccccc2)cc1 [Clomifene] (10 nM) | 105 | 99.2 | 107 | 103 | 111 | 112 | 102 | 99.9 | 122 | 104 | 100 | 103 | 106 | 96.3 | 101 | 99.5 | 107 | 102
Cn1nnc2c(C(N)=O)ncn2c1=O [Temozolomide] (10 nM) | 99.5 | 97 | 92.1 | 100 | 95.8 | 98 | 102 | 103 | 110 | 98.5 | 96.7 | 99.4 | 97.9 | 88.7 | 101 | 102 | 97 | 97.5
Cc1cc2c(F)c(Oc3ncnn4cc(OC[C@@H](C)O)c(C)c34)ccc2[nH]1 [Brivanib] (1 nM) | 104 | 108 | 107 | 103 | 102 | 107 | 111 | 102 | 74.5 | 104 | 97.8 | 111 | 98.9 | 103 | 102 | 95.2 | 107 | 110
Nc1nc(Cl)nc2c1ncn2[C@@H]1O[C@H](CO)[C@@H](O)[C@@H]1F [Clofarabine] (10 nM) | 93.5 | 98.9 | 105 | 105 | 95.8 | 91.3 | 107 | 105 | 72.2 | 102 | 96.8 | 102 | 101 | 95.2 | 95.1 | 98.3 | 102 | 101
COc1cc2c(cc1-c1c(C)noc1C)ncc1[nH]c(=O)n([C@H](C)c3ccccn3)c12 [I-BET151] (10 nM) | 105 | 99.2 | 108 | 99 | 98.5 | 91.7 | 111 | 99.4 | 94.3 | 107 | 97.9 | 103 | 100 | 100 | 101 | 91.9 | 98 | 103
CCc1cnn2c(NCc3ccc[n+]([O-])c3)cc(N3CCCC[C@H]3CCO)nc12 [Dinaciclib] (1 nM) | 98.3 | 97.8 | 102 | 109 | 98.5 | 103 | 115 | 101 | 82.1 | 107 | 104 | 97.8 | 99.6 | 101 | 98.5 | 92.5 | 95.7 | 103
C[C@@H](C(=O)O)c1ccc(-c2ccccc2)c(F)c1 [Tarenflurbil] (10 nM) | 94.6 | 86.7 | 97.5 | 104 | 101 | 94.9 | 92.2 | 95.3 | 123 | 101 | 98 | 97 | 96.7 | 106 | 105 | 94.5 | 90.8 | 93.7
CC(C)(C)Cn1c(N)nc2ccc(-c3[nH]c(C(C)(C)C)nc3-c3ccc(F)cc3)nc21 (10 nM) | 99.7 | 102 | 106 | 106 | 95.1 | 104 | 110 | 97.8 | 97.5 | 104 | 95.6 | 105 | 97.8 | 95.5 | 104 | 95.9 | 103 | 105
